Source: article PMC4414180, “SKI2162, an inhibitor of the TGF-β type I receptor (ALK5), inhibits radiation-induced fibrosis in mice” (Oncotarget, 2015)

Experiments:
ALK1 = biological target: T1, ALK1 (Homo sapiens, UniProt P37023); test: ALK1 selectivity, radioisotope-based (33P) kinase assay; type: biochemical; settings: Supplementary Table 1, unit inferred
T1 construct: GST/histidine tag; made in house; host or cells: insect cells
Experimental: (§1) The kinase activity of ALK5, ALK1, and p38 MAPK were assessed by measuring radiolabelled phosphate (^33P) incorporation into casein. ALK1 and p38 MAPK are closely related to ALK5, and were used for comparison with ALK5 in a SKI2162 selectivity study. IC50 values were calculated from dose–response curves. […]
(§2) www.impactjournals.com/oncotarget/ Oncotarget, Advance Publications 2014 SUPPLEMENTARY METHODS AND MATERIALS
(§3) Cell culture and reagents ACC-3′ (reverse). All samples were normalized to A human keratinocyte cell line (HaCaT) and GAPDH and expressed as the fold induction. Relative an SV40-transformed human fibroblast cell line expression levels were calculated using the comparative (WI38VA13) were cultured in Minimum Essential threshold method. All reactions were done in triplicate.
(§4) Media (Gibco/Life Technologies, USA) or in Dulbecco’s Histopathologic evaluation and fibrosis-related Modified Eagle’s Medium (Gibco/Life Technologies, gene expression in RIF tissues USA), respectively, with 10% fetal bovine serum (Gibco/
(§5) Life Technologies, USA), in a humidified 5% CO2 The skin and soft tissue of the irradiated leg was […]

p38 MAPK = biological target: T2, p38 MAPK (Homo sapiens, UniProt Q16539); test: p38 MAPK selectivity, radioisotope-based (33P) kinase assay; type: biochemical; settings: Supplementary Table 1, unit inferred
T2 construct: GST/histidine tag; made in house; host or cells: insect cells
T2 sequence (Q16539 whole entry): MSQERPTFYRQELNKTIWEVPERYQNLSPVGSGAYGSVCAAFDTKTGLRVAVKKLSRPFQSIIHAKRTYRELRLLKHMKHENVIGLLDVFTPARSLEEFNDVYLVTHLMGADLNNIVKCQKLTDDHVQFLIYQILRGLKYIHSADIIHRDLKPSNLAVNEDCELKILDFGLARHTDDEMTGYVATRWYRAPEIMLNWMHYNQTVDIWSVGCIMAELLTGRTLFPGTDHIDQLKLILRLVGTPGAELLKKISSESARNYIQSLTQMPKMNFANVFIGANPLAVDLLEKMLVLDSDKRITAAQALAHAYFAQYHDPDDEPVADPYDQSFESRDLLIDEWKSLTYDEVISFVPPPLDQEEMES
Experimental: as §1, §2, §3, §4, §5

T1 sequence (P37023 22-503, species assumed): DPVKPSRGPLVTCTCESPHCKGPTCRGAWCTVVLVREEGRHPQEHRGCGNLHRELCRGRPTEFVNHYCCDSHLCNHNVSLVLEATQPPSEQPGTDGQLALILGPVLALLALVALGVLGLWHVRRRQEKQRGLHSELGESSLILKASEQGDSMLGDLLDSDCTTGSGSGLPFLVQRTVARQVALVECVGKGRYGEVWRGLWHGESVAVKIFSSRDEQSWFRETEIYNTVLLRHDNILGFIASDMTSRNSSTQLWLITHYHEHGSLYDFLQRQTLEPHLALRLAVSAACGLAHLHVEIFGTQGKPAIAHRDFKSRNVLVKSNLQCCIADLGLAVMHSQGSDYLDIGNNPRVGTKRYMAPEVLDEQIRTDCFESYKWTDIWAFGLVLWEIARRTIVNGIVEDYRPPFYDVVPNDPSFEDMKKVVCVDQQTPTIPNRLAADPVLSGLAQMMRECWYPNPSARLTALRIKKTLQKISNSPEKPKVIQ

IC50 (ALK1): 9.9 µM | IC50 (p38 MAPK): 0.379 µM
Structure (SMILES): Cc1cccc(-c2nn3c(c2-c2ccnc4ccc(C(N)=O)cc24)CCC3)n1 [LY2157299]
